Reference: ChEMBL document CHEMBL3228010, “Potential antitumor agents. 29. Quantitative structure-activity relationships for the antileukemic bisquaternary ammonium heterocycles” (J Med Chem, 1979)
Where “and” joins values, the source holds several entries; their conditions need not be identical. Equal entries are not always repeated.

Tests used:
Bos taurus = species on record: Bos taurus; assay: Displacement of ethidium from calf thymus DNA by fluorimetric method
[1] = Displacement of ethidium from poly[d(A)]-poly[d(T)] DNA (unknown origin) by fluorimetric method
[2] = Displacement of ethidium from poly[d(A-T)]-poly[d(A-T)] DNA by fluorimetric method
[3] = Displacement of ethidium from poly[d(G-C)]-poly[d(G-C)] DNA (unknown origin) by fluorimetric method
L1210 [4] = assay: Antitumor activity against mouse L1210 cells […] in ip dosed C3H X DBA2 F1 hybrid mouse on day 0 and dosed at LD10 level once daily on days 1 to 5 assessed as increase in life span relative to control; type: functional
Mus musculus = assay: Toxicity in ip dosed C3H X DBA2 F1 hybrid mouse […] with mouse L1210 cells on day 0 and dosed once daily on days 1 to 5 measured after 50 days; type: organism-based; conditions: in vivo, 1200 h
L1210 [5] = assay: Antitumor activity against mouse L1210 cells […] in ip dosed C3H X DBA2 F1 hybrid mouse on day 0 and dosed once daily on days 1 to 5 assessed as increase in life span relative to control; type: functional
[6] = Lipophilic-hydrophilic balance, Rm of the compound by partition chromatography; type: physicochemical

| SMILES | C50 (Bos taurus) | C50 [1] | C50 [2] | C50 [3] | log(ILSmax) (L1210 [4]) | LD10 (Mus musculus) | D40 (L1210 [5]) | Rm [6] |
| --- | --- | --- | --- | --- | --- | --- | --- | --- |
| C[n+]1cccc(NC(=O)c2ccc(NC(=O)c3ccc(C(=O)Nc4ccc(C(=O)Nc5ccc[n+](C)c5)cc4)cc3)cc2)c1 | 0.83 µM and 0.42 µM | 0.13 µM | 0.79 µM and 0.41 µM | 1.6 µM and 0.91 µM |  |  |  |  |
| CCC[n+]1cccc(NC(=O)c2ccc(NC(=O)c3ccc(C(=O)Nc4ccc(C(=O)Nc5ccc[n+](CCC)c5)c(N)c4)c(N)c3)cc2N)c1.Cc1ccc(S(=O)(=O)[O-])cc1.Cc1ccc(S(=O)(=O)[O-])cc1 | 0.26 µM |  | 0.08 µM | 0.48 µM | 2.1 | 10 mg/kg | 2.2 mg/kg | -0.51 |
| CC[n+]1ccc(Nc2ccc(NC(=O)c3ccc(Nc4cc[n+](CC)c5ccccc45)cc3)cc2)cc1.[Br-].[Br-] | 2 µM |  | 0.19 µM | 3.1 µM | 2.07 | 15 mg/kg | 2.8 mg/kg | 0.54 |
| CC[n+]1cccc(NC(=O)c2ccc(NC(=O)c3ccc(C(=O)Nc4ccc5c(ccc[n+]5CC)c4)cc3)cc2)c1.Cc1ccc(S(=O)(=O)[O-])cc1.Cc1ccc(S(=O)(=O)[O-])cc1 | 0.74 µM |  | 0.62 µM | 1.48 µM | 2.2 | 9 mg/kg | 2.3 mg/kg | 0.09 |
| C[n+]1ccc(Nc2ccc(C(=O)Nc3ccc(Nc4cc[n+](C)c5ccccc45)cc3)cc2)cc1.Cc1ccc(S(=O)(=O)[O-])cc1.Cc1ccc(S(=O)(=O)[O-])cc1 | 1.6 µM |  | 0.21 µM | 3 µM | 2.29 | 7.5 mg/kg | 2.2 mg/kg | 0.27 |
| C[n+]1cccc(NC(=O)c2ccc(NC(=O)c3cccc(C(=O)Nc4ccc(C(=O)Nc5ccc[n+](C)c5)cc4)c3)cc2)c1.Cc1ccc(S(=O)(=O)[O-])cc1.Cc1ccc(S(=O)(=O)[O-])cc1 | 0.9 µM |  | 1.2 µM | 1.9 µM | 1.85 | 35 mg/kg | 25 mg/kg | 0.2 |
| CCC[n+]1ccc(Nc2ccc(NC(=O)c3ccc(Nc4cc[n+](CCC)c5ccccc45)cc3)cc2)cc1.[Br-].[Br-] | 2.3 µM |  | 0.2 µM | 3 µM | 1.81 | 15 mg/kg | 8.8 mg/kg | 0.74 |
| COc1cc(N)cc2c(Nc3ccc(NC(=O)c4ccc(Nc5cc[n+](C)cc5)cc4)cc3)cc[n+](C)c12.Cc1ccc(S(=O)(=O)[O-])cc1.Cc1ccc(S(=O)(=O)[O-])cc1 | 0.31 µM |  | 0.1 µM | 0.61 µM | 2.33 | 56 mg/kg | 1.1 mg/kg | 0.07 |
| C[n+]1ccc(Nc2ccc(S(=O)(=O)Nc3ccc(Nc4c5ccccc5[n+](C)c5cc(N)ccc45)cc3)cc2)cc1.[O-][Cl+3]([O-])([O-])[O-].[O-][Cl+3]([O-])([O-])[O-] | 0.1 µM |  | 0.07 µM | 0.12 µM | 2.18 | 35 mg/kg | 5 mg/kg | 0.57 |
| C[n+]1cccc(NC(=O)c2ccc(NC(=O)c3ccc(C(=O)Nc4ccc(C(=O)Nc5ccc[n+](C)c5)cc4)c(Cl)c3)cc2)c1.Cc1ccc(S(=O)(=O)[O-])cc1.Cc1ccc(S(=O)(=O)[O-])cc1 | 1 µM |  | 0.95 µM | 2 µM | 2.11 | 30 mg/kg | 5.6 mg/kg | 0.05 |
| C[n+]1ccc(-c2ccc(-c3ccc(-c4ccc(NC(=O)c5ccc(C(=O)Nc6ccc(-c7ccc(-c8ccc(-c9cc[n+](C)cc9)cc8)cc7)cc6)cc5)cc4)cc3)cc2)cc1.Cc1ccc(S(=O)(=O)[O-])cc1.Cc1ccc(S(=O)(=O)[O-])cc1 | 0.55 µM |  | 0.4 µM | 1.15 µM | 2.28 | 110 mg/kg | 22 mg/kg | -0.3 |
| CC[n+]1cccc(NC(=O)c2ccc(NC(=O)c3ccc(NC(=O)c4ccc(C(=O)Nc5ccc[n+](CC)c5)cc4)cc3)cc2)c1.Cc1ccc(S(=O)(=O)[O-])cc1.Cc1ccc(S(=O)(=O)[O-])cc1 | 0.5 µM |  | 0.43 µM | 0.65 µM | 1.9 | 33 mg/kg | 9.1 mg/kg | -0.44 |
| C[n+]1ccc(Nc2ccc(NC(=O)c3ccc(Nc4cc[n+](C)c5cc(N)ccc45)cc3)cc2)cc1.[Br-].[Br-] | 0.68 µM |  | 0.23 µM | 1.4 µM | 2.11 | 11 mg/kg | 2 mg/kg | 0.08 |
| C[n+]1cccc2cc(NC(=O)c3ccc(C(=O)Nc4ccc(NC(=O)c5ccc6c(ccc[n+]6C)c5)cc4)cc3)ccc21.Cc1ccc(S(=O)(=O)[O-])cc1.Cc1ccc(S(=O)(=O)[O-])cc1 | 0.3 µM |  | 0.35 µM | 0.8 µM | 1.65 | 90 mg/kg | 80 mg/kg | -0.57 |
| C[n+]1cc(-c2ccc(NC(=O)c3ccc(Nc4cc[n+](C)c5ccc(N)cc45)cc3N)cc2)c(N)nc1N.Cc1ccc(S(=O)(=O)[O-])cc1.Cc1ccc(S(=O)(=O)[O-])cc1 | 0.62 µM |  | 0.11 µM | 1.08 µM | 2.41 | 75 mg/kg | 4.4 mg/kg | -0.25 |
| CC[n+]1ccc(Nc2ccc(NC(=O)c3ccc(Nc4cc[n+](CC)c5ccc(N)cc45)cc3)cc2)cc1.[Br-].[Br-] | 0.69 µM |  | 0.1 µM | 1.04 µM | 2.25 | 10 mg/kg | 0.9 mg/kg | 0.22 |
| C(=C\c1ccc(-[n+]2ccccc2)cc1)/c1ccc(/C=C/c2ccc(-[n+]3ccccc3)cc2)cc1.Cc1ccc(S(=O)(=O)[O-])cc1.Cc1ccc(S(=O)(=O)[O-])cc1 | 0.76 µM |  | 0.2 µM | 2.1 µM | 1.95 | 7 mg/kg | 1.6 mg/kg | 0.05 |
| Br.C/C(=N\NC(=N)N)c1ccc(NC(=O)c2ccc(Nc3cc[n+](C)c4ccccc34)cc2)cc1.[Br-] | 0.78 µM |  | 0.39 µM | 1.04 µM | 1.91 | 33 mg/kg | 13 mg/kg | -0.07 |
| C[n+]1ccc(Nc2ccc(C(=O)Nc3ccc(Nc4cc[n+](C)c5ccc(N)cc45)cc3)c(N)c2)cc1.[Br-].[Br-] | 0.6 µM |  | 0.15 µM | 0.91 µM | 2.43 | 20 mg/kg | 1 mg/kg | -0.3 |
| C[n+]1ccc(-c2ccc(-c3ccc(-c4ccc(/N=N/Nc5ccc(C(=O)Nc6ccc(-c7ccc(-c8ccc(-c9cc[n+](C)cc9)cc8)cc7)cc6)cc5)cc4)cc3)cc2)cc1.Cc1ccc(S(=O)(=O)[O-])cc1.Cc1ccc(S(=O)(=O)[O-])cc1 | 0.83 µM |  | 0.1 µM | 0.38 µM | 2.34 | 6 mg/kg | 1.4 mg/kg | -0.22 |
| C[n+]1ccc(Nc2ccc(NC(=O)Nc3ccc(Nc4cc[n+](C)c5ccc(N)cc45)cc3)cc2)cc1.Cc1ccc(S(=O)(=O)[O-])cc1.Cc1ccc(S(=O)(=O)[O-])cc1 | 0.51 µM |  | 0.28 µM | 1.2 µM | 1.74 | 6 mg/kg | 3 mg/kg | 0.17 |
| C[n+]1cc(-c2ccc(NC(=O)c3ccc(Nc4cc[n+](C)c5ccccc45)cc3)cc2)c(N)nc1N.Cc1ccc(S(=O)(=O)[O-])cc1.Cc1ccc(S(=O)(=O)[O-])cc1 | 1.24 µM |  | 0.22 µM | 2.73 µM | 2.27 | 20 mg/kg | 3.5 mg/kg | -0.01 |
| C/C(=N\NC(=N)N)c1ccc(NC(=O)c2ccc(C(=O)Nc3ccc(C(=O)Nc4ccc[n+](C)c4)cc3)cc2)cc1.Cc1ccc(S(=O)(=O)O)cc1.Cc1ccc(S(=O)(=O)[O-])cc1 | 0.46 µM |  | 0.3 µM | 0.52 µM | 1.93 | 20 mg/kg | 8.7 mg/kg | -0.53 |
| C[n+]1cccc(NC(=O)c2ccc(NC(=O)c3ccc(C(=O)Nc4ccc(NC(=N)NC(=N)N)cc4)cc3)cc2)c1.I.[I-] | 1.14 µM |  | 0.77 µM | 1.71 µM | 2.2 | 11 mg/kg | 1 mg/kg | -0.4 |
| C[n+]1cccc(NC(=O)c2ccc(NC(=O)c3ccc(C(=O)Nc4ccc(NC(=N)N)cc4)cc3)cc2)c1.I.[I-] | 1.38 µM |  | 0.91 µM | 2.07 µM | 2.18 | 8 mg/kg | 0.2 mg/kg | -0.12 |
| COc1cc(C(=O)Nc2ccc(C(=O)Nc3ccc[n+](C)c3)cc2)ccc1C(=O)Nc1ccc(C(=O)Nc2ccc[n+](C)c2)cc1.Cc1ccc(S(=O)(=O)[O-])cc1.Cc1ccc(S(=O)(=O)[O-])cc1 | 0.64 µM |  | 0.64 µM | 1.51 µM | 1.72 | 18 mg/kg | 10.3 mg/kg | 0.23 |
